Results reported in patent US4683229A, “6-halo-9-alkenyleneoxy-3-alkyl-2,3,4,5-tetrahydro-(1H-3)-benzazepines and their use as selective alpha-adrenergic receptor antagonists” (SmithKline Beckman Corporation, priority 1986, dated 1987).
Entries after “also recorded” stand apart in the source; their conditions may differ. Like-named read-outs stand apart in the source and are kept apart here.

Tests used:
[1] = system: alpha3 receptor (dog saphenous vein); experiment: Alpha3 activity in dog saphenous vein: shift of BHT-920 dose-response curve; type: cell-based; conditions: for antagonism in the alpha3 test system (in words) / Kb: dog saphenous vein; for separation in the concentrations producing alpha2 and alpha3 effects: guinea pig vas deferens (alpha2) vs dog saphenous vein (alpha3); for Kb: read-out: KB alpha3 DSV, BHT-920 agonist
Experimental: (§1) The receptor dissociation constant (KB) for the antagonist was determined using the relationship [formula] (Furchgott, R. F., Handbook of Experimental Pharmacology, eds. Eichler, et al., pp. 283-335 (Springer 1972)). The KB value obtained at each antagonist concentration was averaged to obtain a mean KB for each experiment.
The dog saphenous vein (DSV) was used as the test system for measuring activity of the compounds at the alpha3 receptor. This test system has been shown a suitable preparation in which to characterize postsynaptic alpha2 (alpha3) adrenoceptors. Sullivan, A. T. and G. M. Drew, Arch. Pharmacol. 314:249-58 (1980). This test system is prepared by removing the lateral saphenous vein from an anesthetized dog and cutting the vein into segments of 10 mm in length. Each segment then is cut into a helical strip and mounted, in a tissue bath, between a stationary tissue holder and transducer with which isometric contractions are recorded as changes in grams of tension. Additional details of this methodology are found in Fowler, P. J., et al., J. Pharmacol. Exp. Ther. 229:712-18 (1984).
The alpha3 activity of the compounds of interest is determined by measuring shifts in the dose-response curve of a specific agonist induced by the tested compounds. The alpha2 specific agonist, BHT-920, was used in testing the compounds listed in Table I. Data are reported as KB, defined above.
(§2) The results are expressed in nanomolar concentrations. Compound (D) is the prior art compound mentioned above; compounds (E) and (F) are compounds of the present invention.

[2] = target: T1, alpha2 receptor (guinea pig vas deferens) (Cavia porcellus, UniProt Q60474); experiment: Alpha2 activity in isolated, superfused guinea pig vas deferens: stimulated/basal 3H-norepinephrine release; type: cell-based; conditions: for alpha2 effects in guinea pig vas deferens (in words): up to the highest tested concentration
T1 construct: both vasa deferentia were removed and placed in a dish; from tissue; host or cells: isolated vas deferens of male guinea pigs
T1 sequence (Q60474 1-464): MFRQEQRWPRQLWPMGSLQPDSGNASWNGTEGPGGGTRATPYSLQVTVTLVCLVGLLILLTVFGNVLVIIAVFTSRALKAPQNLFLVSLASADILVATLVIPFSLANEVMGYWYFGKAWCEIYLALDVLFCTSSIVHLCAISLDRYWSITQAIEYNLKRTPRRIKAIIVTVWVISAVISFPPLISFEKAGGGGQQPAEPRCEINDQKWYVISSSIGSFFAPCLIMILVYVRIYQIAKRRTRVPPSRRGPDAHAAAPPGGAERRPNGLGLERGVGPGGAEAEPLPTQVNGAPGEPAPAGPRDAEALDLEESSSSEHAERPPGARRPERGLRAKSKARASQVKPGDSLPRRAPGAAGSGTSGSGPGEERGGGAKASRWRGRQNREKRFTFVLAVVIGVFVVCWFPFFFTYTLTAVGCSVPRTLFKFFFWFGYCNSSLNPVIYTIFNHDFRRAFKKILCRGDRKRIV
Description: The second system utilized in determining the alpha2 activity of the compounds of interest is the isolated, superfused guinea pig vas deferens (Vas Def). From male (300-600 g) guinea pigs sacrificed by administration of a lethal amount of pentobarbital, both vasa deferentia were removed and placed in a dish containing a cold nutrient-buffer solution. The tissue was cleaned and the fibrous sheath removed gently. The ends were trimmed to yield segments about 4 cm in length and 4-0 silk ties attached to each end. The vasa deferentia then were incubated in 10 ml of nutrient-buffer solution containing […] of ^3 H-norepinephrine. Tissue was incubated at 37° C. for 30 minutes with continuous gassing with 95% O2, 5% CO2. After incubation, the tissue was mounted in a superfusion apparatus constructed of 3 mm ID glass tubing. One end was connected, via the silk tie, to a plug constructed of silicone rubber and polyethylene with a platinum wire hook. The other tie was connected to a force-displacement transducer. About 1 g of tension was applied to the tissue, and superfusion with nutrient-buffer solution initiated at 2 ml/minute, using a peristaltic pump. The chambers had platinum electrodes fused through the glass at the top and bottom to allow field stimulation of the tissue.
Before compound testing, tissues were equilibrated for at least 2 hours, during which time stimulation (3 Hz, 0.7 msec pulse duration, 80 V) was applied for 2 minutes at 30 minute intervals. Following this equilibration period, three control stimulations were performed. For each stimulation, two effluent samples were collected directly into 20 ml scintillation vials; one prior to, and one during field stimulation. The basal sample was collected during a 2 minute interval immediately prior to stimulation. The stimulation sample was collected beginning 30 seconds after initiation of stimulation, and continuing for 30 seconds following termination of the field stimulation. This lag period is to allow for the dead space in the superfusion chamber. This collection-stimulation procedure was repeated at 20 minute intervals. Following the third control collection, compound was added into the superfusion flow; 20 minutes later the collection-stimulation was repeated in the presence of compound. Compound concentration was increased ten-fold following each stimulation, and the cycle repeated until four drug concentrations had been tested. A final stimulation-collection was performed after termination of compound superfusion.
Ten ml of standard scintillation fluid (Aquasol-II) was added to all samples, and the DPM values were determined on a beta-scintillation counter. The stimulated/basal release ratio was determined for each pair. The stimulated/basal ratios for the three initial control collections were averaged to obtain a mean control ratio. The compound effect was determined by comparing the stimulated/basal ratio in the presence of increasing compound concentration to the mean control ratio. The EC50 was defined as the compound concentration producing a 50% increase in the stimulated/basal release ratio.
as §2

[3] = Mean arterial blood pressure and heart rate in spontaneously hypertensive rats; type: in vivo; conditions: 1.5 mg/kg intravenously
Experimental: Further, spontaneously hypertensive rats were dosed, intravenously, at a dose of 1.5 mg/kg, with a solution of one of the compounds of the invention (Compound E, Table I) and mean arterial blood pressure was monitored for 45 minutes using indwelling cannulae positioned in the tail arteries. At the end of the 15 minute infusion, systolic and diasystolic pressures had reached their nadirs and were each approximately 30 to 35 mm Hg below vehicle-treated controls. Thirty minutes following cessation of the infusion, systolic and diasystolic pressures remained approximately 20 mm Hg less than the controls. Also, heart rate was measured during the period blood pressure was monitored.

[4] = target: T2, alpha2 receptor (guinea pig left atrium) (Cavia porcellus, UniProt Q60474); experiment: Alpha2 activity in isolated, superfused guinea pig left atrium: antagonism of clonidine; type: cell-based; conditions: for alpha2 effects in guinea pig atrium (in words): up to the highest tested concentration
T2 construct: The left atrium is separated, dissected free of extraneous tissue; from tissue; host or cells: isolated left atrium of male guinea pig
T2 sequence (Q60474 1-464): T1 sequence (Q60474 1-464)
Experimental: as §1
One of the two systems employed to determine alpha2 activity of the compounds was the isolated, superfused guinea pig left atrium. Briefly, the heart is removed from a pentobarbital-anesthetized male guinea pig. The left atrium is separated, dissected free of extraneous tissue and mounted in a 2 ml superfusion chamber. The tissue is paced at 60 pulse/minute and the sympathetic nerves excited at 6 minute intervals by field stimulation. The response to nerve stimulation is measured as the difference in contractile force between the basal contraction and peak contraction following a nerve stimulation. A concentration-response curve for clonidine (a known alpha2 […]) is prepared by administering increasing concentrations of clonidine following each successive stimulation. The tissue then is superfused for thirty minutes with the alpha-adrenoceptor antagonist to be tested and the clonidine concentration-effect curve is repeated in the presence of antagonist. Data are reported as KB, defined above. Additional details of this test system are found in Hieble, J. P. and R. G. Pendleton, Arch. Pharmacol., 309:217-224 (1979).
as §2

[5] = system: alpha1 adrenoceptor (rabbit aorta); experiment: Alpha1 activity in rabbit aorta segments: antagonism of norepinephrine contraction; type: cell-based; conditions: for Kb: read-out: KB alpha1 Aorta, norepinephrine agonist
Experimental: Alpha1 activity was determined using the rabbit aorta. Male New Zealand White rabbits (2-4 Kg) were euthanized by cervical concussion. A 4 cm portion of the thoracic aorta was removed and placed in a dish of cold (10° C.) Krebs-Hensleit solution. The tissue was cleaned of fat and connective tissue and cut into segments of approximately 3 mm in length. These segments were suspended in 10 ml tissue baths via hangers constructed of 0.25 mm tungsten wire. One hanger was fixed to a support in the bath, the other attached via silk thread to a force-displacement transducer.
Tissue segments were equilibrated for 2 hours prior to drug testing, during which time basal tension was maintained at 2 gm. Tissues were washed at 30 minute intervals during this equilibration period. The Krebs-Hensleit solution contained cocaine (6 μM) to block neuronal uptake and propranolol (1 μM) to block beta-adrenoceptors. Tissues were usually challenged once with norepinephrine (0.1 μM) during the equilbration period to check for viability.
A cumulative concentration-response curve to norepinephrine was obtained in each aortic segment. Following washout of norepinephrine, the alpha adrenoceptor antagonist to be tested was added to the bath. After the tissue had been in contact with the antagonist for 30-60 minutes, the norepinephrine concentration response-curve was repeated in the presence of antagonist. The tissue was then washed again, and a tenfold higher concentration of antagonist added. Following equilibration (30-60 minutes), a third norepinephrine concentration-response curve was determined in the presence of the antagonist.
as §1, §2

[6] = thirty minutes following cessation of the infusion

In the case of CC(C)=CCOc1ccc(Cl)c2c1CCN(C)CC2 [Compound E, 9-(3-methyl-2-butenyloxy)-6-chloro-3-methyl-2,3,4,5-tetrahydro-1H-3-benzazepine], the “antagonism in the alpha3 test system (in words)” value [1] is reported as “potent antagonists”, the “separation in the concentrations producing alpha2 and alpha3 effects” value [1] is reported as ≥ 200 fold and the Kb [1] is reported as 37 nM. For the same molecule, the EC50 [2] was > 10000 nM, the “alpha2 effects in guinea pig vas deferens (in words)” value [2] was “no alpha2 effects” and the “reflex tachycardia (heart rate)” value ([3]; heart rate measured during blood pressure monitoring) was “No statistically significant reflex tachycardia”. The “diastolic pressure less than controls, after infusion” value [3, 6] was “approximately 20 mm Hg”, the “systolic pressure less than controls, after infusion” value [3, 6] was “approximately 20 mm Hg” and the Kb [4] was > 10000 nM. The “alpha2 effects in guinea pig atrium (in words)” value [4] was “no alpha2 effects”, the “alpha1 activity compared among compounds D, E and F (in words)” value [5] was “similar” and the Kb [5] was 150 nM.

In the case of C=CCOc1ccc(Cl)c2c1CCN(C)CC2.Cl [D, 9-allyloxy-6-chloro-3-methyl-2,3,4,5-tetrahydro-1H-3-benzazepine hydrochloride, reference compound], the “alpha3 adrenoceptor selectivity vis-a-vis alpha2 (in words)” value ([1]; alpha3 vs alpha2, hydrochloride) is reported as “does not approach the high degree of specificity exhibited by the presently invented compounds; also recorded: insignificant alpha3 -adrenoceptor selectivity”, the “separation in the concentrations producing alpha2 and alpha3 effects” value [1] is reported as “four” and the Kb [1] is reported as 54 nM. The EC50 [2] was 224 nM, the “alpha2 effects in guinea pig vas deferens (in words)” value [2] was “significant activity at the alpha2 receptor” and the Kb [4] was 903 nM. The “alpha2 effects in guinea pig atrium (in words)” value [4] was “significant activity at the alpha2 receptor”, the “alpha1 activity compared among compounds D, E and F (in words)” value [5] was “similar” and the Kb [5] was 150 nM.

For CC=COc1ccc(Cl)c2c1CCN(C)CC2 [F, 9-(1-propenyloxy)-6-chloro-3-methyl-2,3,4,5-tetrahydro-1H-3-benzazepine], the “antagonism in the alpha3 test system (in words)” value [1] was “potent antagonists”, the Kb [1] was 100 to 200 nM and the EC50 ([2]; guinea pig vas deferens, concentration producing a 50% increase in the stimulated/basal release ratio, read-out: EC50 alpha2 Vas Def) was > 10000 nM. For the same molecule, the “alpha2 effects in guinea pig vas deferens (in words)” value [2] was “no alpha2 effects”, the Kb ([4]; guinea pig left atrium, clonidine, read-out: KB alpha2 Atrium) was > 1000 nM and the “alpha2 effects in guinea pig atrium (in words)” value [4] was “no alpha2 effects”. For the same molecule, the “alpha1 activity compared among compounds D, E and F (in words)” value [5] was “similar” and the Kb [5] was 31 nM.
